From paper PMC5617480 (Oncotarget, 2017)

Tests used:
BEL-7404 xenograft = details: BEL-7404 model, 5-Fu 20.0 mg/kg per two days iv
Protocol: In vivo anticancer efficacy of chiral platinum(II) complex 6 was evaluated using BEL-7404 and BEL-7402 xenograft mouse models. BEL-7404 and BEL-7402 cells were injected into nude mice. The mice were randomized into the control group, complex 6-treated group, and the positive control group (n = 6/group). When the volume of tumor was about 80 mm^3, complex 6 was given at a high (8 mg/kg) and low (4 mg/kg) dosage daily for 18 days, 5-FU (20 mg/kg every two days) and Cisplatin (2 mg/kg every two days) were used as a positive control in the BEL-7404 and BEL-7402 xenograft model, respectively.
To evaluate the vivo anticancer efficacy of complex 6, BEL-7404 and BEL-7402 xenograft mouse models (BALB/c nude mice, female for BEL-7404 model, 17–20 g, 6–7 weeks old; male for BEL-7402 model, 18-21 g, 6–7 weeks old) were used. Furthermore, animal used, maximum tolerated dose (MTD) analysis, acute toxicity studies and antitumor activity toward BEL-7404 and BEL-7402 models in vivo of complex 6, was similar to Chen reported.
H21T (3.5 pmol; 5’-G [T AG ] -3’), primer TS (18 pmol; tumor tissue were cut into about 1.5 mm3 small pieces, and […]
5’-[…]-3’), KCl (63 mM), then transplanted into the right flank of nude mice. When EGTA (1 mM), MgCl (1.5 mM), Tween-20 (0.005%), the average tumors reach a volume of about 80 mm3, the […]
primer NT (7.5 pmol; 5’-[…]-3’), mice were randomized into 4 groups (n=6), received the […]
TSNT internal control (0.01 amol; 5’-[…] following treatments: (a) control, received saline solvent; […]
-3’), primer (b) complex 6 at doses of 8.0 mg/kg daily (dissolve in […]
Cxext (22.5 pmol; 5’-[…] saline, iv); (c) complex 6 at doses of 4.0 mg/kg daily; […]
[…]-3’), Taq DNA polymerase (2.5 U), and (d) in BEL-7404 model, 5-fluorouracil (5-Fu) as positive telomerase (100 ng). Complexes or/and distilled water control at 20 mg/kg per two days (dissolve in saline, iv); was added ([…]). PCR was performed in an Eppendorf in BEL-7402 model, cisplatin as positive control at 2 mg/ Master cycler equipped with a hot lid and incubated for kg per two days (dissolve in saline, iv).
30.0 min at 30 °C, followed by 92 °C 30 s, 52 °C 30 s, The tumor volumes and body weight was monitored and 72°C 30 s for 30.0 cycles. After amplification, 8.0 every 3 days, The tumor volumes were estimated by […] loading buffer (5×TBE buffer, 0.2% xylene cyanol, measuring the two dimensions of the tumors using caliper and 0.2% bromophenol blue ) were added to the reaction. and calculated by the formula 1 [1, 6, 14]:
An […] of aliquot was loaded onto a nondenaturing V = (length × width2)/2(1) acrylamide gel (19:1, 16%) in 1×TBE buffer and resolved at 200.0 V for 1.0 h. Gels were fixed and then stained with On day 18, the mice were sacrificed, and tumor AgNO3 [8–11]. tissue were dissected out and weighted, tumor growth inhibition rate calculated using formulas 2 and 3 [1, 6,
In order to verify whether complexes 4–6 can TGI (%) = (ΔVc − ΔVt)/ΔVc×100%(2) directly regulate c-myc promoter (Pu27) and the IR(%) = (Wc − Wt)/Wc×100%(3) expression of hTRET in BEL-7404 cells, consequently Where ΔVt = tumor volumefinal −tumor volumeinitial inhibiting the telomerase function, we constructed EGFP for compound treated group, ΔVc=tumor volumefinal − and c-myc gene vectors according to those illustrated tumor volumeinitial for vehicle control group; Wt and Wc in Chalfie, Chen and He previous work. The detailed mean the average tumor weight of complex-treated and procedures for the construct of gene (c-myc and EGFP vehicle controlled group respectively. genes) vectors, and the method of transfection assays REFERENCES have been reported by Chalfie, Chen and He [1, 6, 9, 12,

A549 cells = experiment: Cytotoxicity assay (MTT assay); format: cell-based, human; details: A549, 100 μM
BEL-7404 cells = experiment: Cytotoxicity assay (MTT assay); format: cell-based, human; details: BEL-7404, 100 μM
MGC80-3 cells = experiment: Cytotoxicity assay (MTT assay); format: cell-based, human; details: MGC80-3, 100 μM
BEL-7402 cells = experiment: Cytotoxicity assay (MTT assay); format: cell-based, human; details: BEL-7402, 100 μM
Hep-G2 cells = experiment: Cytotoxicity assay (MTT assay); format: cell-based, human; details: Hep-G2, 100 μM
HeLa cells = experiment: Cytotoxicity assay (MTT assay); format: cell-based, human; details: 100 μM

Structure (SMILES)	Tumor volume (start) (BEL-7404 xenograft) [mm3]	Average tumor weight (mean ± SD g) (BEL-7404 xenograft; day 18) [g]	Tumor volume (end) (BEL-7404 xenograft; day 18) [mm3]	Inhibitory rates (%) (A549 cells; 24 h)	Inhibitory rates (%) (A549 cells; 48 h)	Inhibitory rates (%) (BEL-7404 cells; 24 h)	Inhibitory rates (%) (BEL-7404 cells; 48 h)	Inhibitory rates (%) (MGC80-3 cells; 24 h)	Inhibitory rates (%) (MGC80-3 cells; 48 h)	Inhibitory rates (%) (BEL-7402 cells; 24 h)	Inhibitory rates (%) (BEL-7402 cells; 48 h)	Inhibitory rates (%) (Hep-G2 cells; 24 h)	Inhibitory rates (%) (Hep-G2 cells; 48 h)	Inhibitory rates (%) (HeLa cells; 24 h)	Inhibitory rates (%) (HeLa cells; 48 h)
O=c1[nH]cc(F)c(=O)[nH]1 [5-FU, 5-fluorouracil, reference compound]	75.95±25.57	0.47 ± 0.20	576.17±297.34	–	–	–	–	–	–	–	–	–	–	–	–
C[S](C)(=O)[Pt]([Cl])([Cl])[S](C)(C)=O [cis-Pt(DMSO)2Cl2]	–	–	–	15.1 ± 1.7	22.3 ± 0.5	5.3 ± 1.5	8.0 ± 0.7	10.2 ± 1.3	30.4 ± 0.8	8.6 ± 2.4	12.3 ± 0.4	10.1 ± 0.4	13.8 ± 0.7	19.8 ± 0.7	25.4 ± 1.2
